The subject of data set [1] is lymphoid leukemia L1210 cells. Description: Mitotic index of cultured lymphoid leukemia L1210 cells. The data set is classed as cell-based.
Data set [2] concerns lymphocytic leukemia P388 cells. Description: Activity against lymphocytic leukemia P388 (10^6 tumor cell implant, i.p.) in mice. As to conditions: P388, 10^6 cells i.p. In kind it is in vivo. The text has this: (c) Lymphocytic leukemia P388. R. I. Geran, N. H. Greenbert, M. M.
MacDonald, A. M. Schumacker, and B. J. Abbott, Cancer Chemother. Rep., 3

The test system of data set [3] is lymphoid leukemia L1210 cells. Nature of the data set: Inhibition of proliferation of cultured lymphoid leukemia L1210 cells. In kind it is cell-based. Conditions: Mus musculus. The method, then: The 1,2-dihydropyrido[3,4-b]pyrazines of this invention are powerful inhibitors of the proliferation of cultured lymphoid luekemia L1210 cells as shown in Table IV.
(a) Concentration of agent that inhibits proliferation of cultured
lymphoid leukemia L1210 cells to 50% control growth during 48 hours. G. P
Wheeler, B. J. Bowdon, J. A. Werline, D. J. Adamson and C. Temple, Jr.,

Data set [4] deals with lymphocytic leukemia P388 cells. As to conditions: sensitive line of P388, 10^6 cell implant IP, 2 mg/kg, qd 1-9; cited from earlier work.
Data set [5] relates to Methotrexate-resistant line of P388 (tumor P7). As to conditions: methotrexate-resistant line of P388, 10^6 cell implant IP, 2 mg/kg, qd 1-9; cited from earlier work.
Data set [6] has as its system Vincristine-resistant line of P388. Description: Activity against vincristine-resistant line of P388 in mice. In kind it is in vivo. Conditions: for activity against P388 cells resistant to vincristine: in mice. The text has this: (g) Vincristineresistant line of P388. L. J. Wilkoff and E. A. Dulmadge, […]
Data set [7] concerns Methotrexate-resistant line of P388 (tumor P7). Description: Activity against methotrexate-resistant line of P388 in mice. The data set is classed as in vivo. Conditions: methotrexate-resistant P388, schedule day 1, 100 mg/kg. The method, then:
(e) Methotrexateresistant line of P388 (designated tumor P7 by the Drug
Evaluation Branch, National Cancer Institute). In mice with 10^6 cell
implant (IP), methotrexate at a dose of 2 mg/kg on the qd 1-9 schedule
gave a 2log cell kill against the sensitive line of P388 and a 2log
increase in cells against the methotrexateresistant line of P388.

Another data set deals with several neoplasms. Conditions: cited from earlier work.
In the next data set the test system is KB cell. As to conditions: cited from earlier work.
Where [8] appears, read: L1210, inhibits proliferation to 50% control growth during 48 hours (footnote a), read-out: ID50 (the source's name).

Where two headings read alike, the source gives them in different places.

Regarding `CCOC(=O)Nc1cc2c(c(N)n1)N=C(CN(C)c1ccc(OC)cc1)C(C)N2` (centres unmarked) [R = 4-CH3 OC6 H4 N(CH3)CH2 (R4 = CH3), Ethyl 5-Amino-1,2-dihydro-3-[[N-(4-methoxyphenyl)-N-methylamino]methyl]-2-methylpyrido[3,4-b]pyrazine-7-carbamate], in [1] (0.3 μM), the “Mitotic Index 12 h” value turned out to be 0.66. Besides, the “% ILS” value in data set [2] (schedule days 1-5, 48 mg/kg) is recorded as 53%. For the same compound, the IC50 in data set [3] (setting [8]) was 5.5 nM.
On to `CN(Cc1cnc2nc(N)nc(N)c2n1)c1ccc(C(=O)N[C@@H](CCC(=O)O)C(=O)O)cc1` [methotrexate], for which, in data set [4], the log cell kill is recorded as 2 log. In data set [5], the “log increase in cells” value is 2 log.
Turning to `CCOC(=O)Nc1cc2c(c(N)n1)N=C(CN(C)c1ccccc1)CN2` [R = C6 H5 N(CH3)CH2 (R4 = H), Ethyl 5-Amino-1,2-dihydro-3-[(N-methyl-N-phenyl)aminomethyl]pyrido[3,4-b]pyrazine-7-carbamate], the “Mitotic Index 12 h” value in data set [1] (0.03 μM) is recorded as 0.77. For the same compound, the “Mitotic Index 24 h” value in [1] (0.3 μM) was determined as 0.80. In addition, the “% ILS” value in [2] (schedule day 1, 100 mg/kg) is 114%; in data set [6] (vincristine-resistant P388, schedule day 1, 67 mg/kg), 90%; in data set [7], 66%. Moreover, the IC50 in [3] (setting [8]) was determined as 8.4 nM. In addition, the “activity against P388 cells resistant to vincristine” value in data set [6] is given as “active in mice against P388 cells that were resistant to vincristine”.
For `CCOC(=O)Nc1cc2c(c(N)n1)N=C(CN(C)c1ccccc1)CN2` [NSC-181928], the “activity against several neoplasms” value in the data set with several neoplasms is “active against several neoplasms”.
`CCOC(=O)Nc1cc2c(c(N)n1)N=C(CN(C)c1ccc(C(=O)OC)cc1)CN2` [drawing 5]: the “cytotoxicity in the KB cell culture screen” value in the data set with KB cell is listed as “showed cytotoxicity in the KB cell culture screen”.
Consider `CCOC(=O)Nc1cc2c(c(N)n1)N=C(CN(C)c1ccc(OC)cc1)CN2` [R = 4-CH3 OC6 H4 N(CH3)CH2 (R4 = H)], for which the “Mitotic Index 12 h” value in [1] (0.03 μM) is 0.64; in data set [1] (0.3 μM) it was 0.49. Further, the “% ILS” value in [2] (schedule day 1, 25 mg/kg) is given as 133%; in [2] (schedule day 1, 50 mg/kg), 80%; in [6] (vincristine-resistant P388, schedule day 1, 25 mg/kg) it was 150%. The IC50 in [3] (setting [8]) was found to be 7.9 nM. The “activity against P388 cells resistant to vincristine” value in [6] was “active in mice against P388 cells that were resistant to vincristine”.
Turning to `CCOC(=O)Nc1cc2c(c(N)n1)N=C(CCc1ccccc1)CN2` [R = C6 H5 CH2 CH2 (R4 = H), Ethyl 5-Amino-1,2-dihydro-3-(2-phenylethyl)pyrido(3,4-b)pyrazine-7-carbamate], the “Mitotic Index 24 h” value in [1] (0.3 μM) was 0.33. Also, the “% ILS” value in data set [2] (schedule day 1, 100 mg/kg) amounted to 29%. In [3] (setting [8]), the IC50 turned out to be 13 nM.
Regarding `CCOC(=O)Nc1cc2c(c(N)n1)N=C(CN(C)c1ccc(C(=O)OC)cc1)CN2` [R = 4-CH3 O2 CC6 H4 N(CH3)CH2 (R4 = H), reference compound], the results for the “Mitotic Index 12 h” value in data set [1] (0.1 μM) and in data set [1] (0.3 μM) were 0.44 and 0.61, respectively. Besides, in data set [2] (schedule days 1-9, 25 mg/kg), the “% ILS” value turned out to be 30%. In [3] (setting [8]), the IC50 came to 58 nM.
Consider `CC[C@]1(O)C[C@H]2CN(CCc3c([nH]c4ccccc34)[C@@](C(=O)OC)(c3cc4c(cc3OC)N(C=O)[C@H]3[C@@](O)(C(=O)OC)[C@H](OC(C)=O)[C@]5(CC)C=CCN6CC[C@]43[C@@H]65)C2)C1` [Vincristine, reference compound], for which, in data set [3] (L1210, 48 h, read-out: ID50), the IC50 was found to be 1 nM.
For `CCOC(=O)Nc1cc2c(c(N)n1)N=C(CN(C)c1ccc(Cl)cc1)CN2` [R = 4-ClC6 H4 N(CH3)CH2 (R4 = H)], the “Mitotic Index 12 h” value in [1] (0.03 μM) is reported as 0.71. Further, the “% ILS” value in data set [2] (schedule day 1, 100 mg/kg) was 65%. Moreover, the IC50 in data set [3] (setting [8]) came out at 14.5 nM.

Values taken from patent publication US4645840A, “Intermediates for preparing 1,2-dihydropyrido[3,4-b]-pyrazines” (Southern Research Institute, priority 1986, dated 1987).
